Where a name gives a salt, the structure may show the parent alone.
Columns and labels:
[1] = Fraction of drug in microparticles and in MCT oil carrier after storage; assay type: physicochemical
Excerpt: Mixtures ranged from 2% to 10% w/w of the active pharmaceutical ingredient. The mixed powder was transferred to an extruder where the temperature was adjusted according to the chosen polymer. Some polymers needed higher temperatures to produce a melt with good flow properties. The extruder contained twin screws that moved clockwise to produce efficient mixing. The material was extruded through a 1.5 mm orifice, collected, cooled at room temperature, and cut into short strands about 1-2 inches long. These strands were then fed into a 12-tooth rotor mill, followed by a sieving step to produce microparticles of about 20 to 100 microns. The microparticles were collected and stored at 5° C. until further use.
Experimental samples were prepared by dispersing about 50 mg of the microparticles into 0.75 mL of a MCT oil carrier. The samples were stored at 5° C. and 25° C. for two days, two weeks, or one month, at which times representative samples were tested. The fraction of drug that remained in the microparticles and the fraction of drug that partitioned into the MCT oil carrier were determined. Briefly, the samples were centrifuged to separate the microparticles from the MCT oil carrier. Each portion was treated independently to determine the amount of drug it contained. Results are reported on the basis of the percent residing in each independent portion.

Solubility in MCT oil = assay type: physicochemical; conditions: oil or lipid
[2] = PLGA copolymer, 1 Month Storage at 5° C.
[3] = PLGA copolymer, 1 Month Storage at 25° C.
[4] = PLGA copolymer, 2 Days Storage at 5° C.
[5] = PLGA copolymer, 2 Days Storage at 25° C.
[6] = polycaprolactone/PLGA copolymer, Two Weeks Storage, 5° C.
[7] = polycaprolactone/PLGA copolymer, Two Weeks Storage, 25° C.

drug in MCT Carrier [1, 6] [%] | drug in Microparticles [1, 6] [%] | drug in MCT Carrier [1, 7] [%] | drug in Microparticles [1, 7] [%] | Compound | drug in MCT Carrier [1, 2] [%] | drug in Microparticles [1, 2] [%] | drug in MCT Carrier [1, 3] [%] | drug in Microparticles [1, 3] [%] | drug in MCT Carrier [1, 4] [%] | drug in Microparticles [1, 4] [%] | drug in MCT Carrier [1, 5] [%] | drug in Microparticles [1, 5] [%] | solubility (Solubility in MCT oil) [mg/mL]
– | – | – | – | CN(C)c1ccc(O)c2c1C[C@H]1C[C@H]3[C@H](N(C)C)C(O)=C(C(N)=O)C(=O)[C@@]3(O)C(O)=C1C2=O [minocycline, minocycline HCl] | 0.1 | 99.9 | 0.4 | 99.6 | 0.9 | 99.1 | 0.6 | 99.4 | –
0.0 | 100.0 | 0.0 | 100.0 | CC[C@H](C)[C@H](NC(=O)[C@@H]1CCCN1C(=O)CNC(=O)[C@H](Cc1ccccc1)NC(=O)[C@H](CC(N)=O)NC(=O)[C@H](CC(N)=O)NC(=O)[C@H](CO)NC(=O)[C@H](CO)NC(=O)[C@H](Cc1c[nH]cn1)NC(=O)[C@@H](NC(=O)[C@H](CC(C)C)NC(=O)[C@H](Cc1ccccc1)NC(=O)[C@H](CC(N)=O)NC(=O)[C@H](C)NC(=O)[C@H](CC(C)C)NC(=O)[C@H](CCCNC(=N)N)NC(=O)[C@H](CCC(N)=O)NC(=O)[C@@H](NC(=O)[C@H](C)NC(=O)[C@@H]1CSSC[C@H](NC(=O)[C@@H](N)CCCCN)C(=O)N[C@@H](CC(N)=O)C(=O)N[C@@H]([C@@H](C)O)C(=O)N[C@@H](C)C(=O)N[C@@H]([C@@H](C)O)C(=O)N1)[C@@H](C)O)C(C)C)C(=O)N[C@@H](CC(C)C)C(=O)N1CCC[C@H]1C(=O)N1CCC[C@H]1C(=O)N[C@H](C(=O)N[C@@H](CC(N)=O)C(=O)N[C@H](C(=O)NCC(=O)N[C@@H](CO)C(=O)N[C@@H](CC(N)=O)C(=O)N[C@H](C(=O)N[C@@H](Cc1ccc(O)cc1)C(N)=O)[C@@H](C)O)C(C)C)[C@@H](C)O [pramlintide] | 0.3 | 99.7 | 0.0 | 100.0 | 0.0 | 100.0 | 0.0 | 100.0 | –
– | – | – | – | O=C(O)c1ccccc1O [salicylic acid] | 0.1 | 99.9 | 0.2 | 99.8 | 1.1 | 98.9 | 0.9 | 99.1 | > 30
– | – | – | – | O=C([O-])c1ccccc1O.[Na+] [sodium salicylate] | 1.3 | 98.7 | 1.5 | 98.5 | 0.5 | 99.5 | 2.3 | 97.7 | –
– | – | – | – | bovine serum albumin | 0.0 | 100.0 | 0.0 | 100.0 | 0.0 | 100.0 | 0.0 | 100.0 | –
– | – | – | – | davalintide | 0.6 | 99.4 | 0.0 | 100.0 | 0.2 | 99.8 | 0.0 | 100.0 | –
– | – | – | – | insulin | 0.5 | 99.5 | 0.7 | – | – | – | – | – | –
– | – | – | – | metreleptin | 0.0 | 100.0 | 0.0 | 100.0 | 0.0 | 100.0 | 0.0 | 100.0 | –

— patent US20140220134A1, “METHOD FOR TREATING DIABETES WITH EXTENDED RELEASE FORMULATION OF GLP-1 RECEPTOR AGONISTS” (Astrazeneca Pharamceuticals LP, priority 2011, published 2014)
